Test results as given in patent publication US20200138031A1, “MIXTURES OF SABADILLA ALKALOIDS AND N-OCTYL BICYCLOHEPTENE DICARBOXIMIDE AND USES THEREOF” (priority 2016, published 2020).

Legend:
Type in all cases: in vivo
[1] = tested on: Yellow fever mosquito (Aedes aegypti); assay: whole plant or invertebrate; conditions: for % Mortality: Hour 4; for mortality at 0.05 % strength / mortality at 0.5 % strength / mortality at 1 % strength / mortality: Aedes aegypti; for mortality at 1 % strength: 1.0 % w/w
Method: (§1) A direct spray bioassay for a mixture of sabadilla and N-octyl bycloheptene dicarboximide (MGK264) against Yellow fever mosquito (Aedes aegypti) was conducted on Sep. 20-27, 2019. A water-based formulation containing Sabadilla alone, MGK264 alone, or these combinations were prepared using test products and distilled water. Ten adults (females) of the mosquito were put into 650 mL clean cup (100 mm diameter×70 mm height) laid a filter paper (106 mm diameter) at the bottom, and the cup was covered with 1 mm mesh nylon net. The cup was set on the bottom of CSMA chamber (460 mm×460 mm×700 mm height), and 0.5 mL of water (control) or water-based formulation of test products was sprayed from the distance of 30 cm toward the cup at the air pressure of 0.039 MPa (0.4 kg/cm2). […] The test was repeated 4 times and calculated mortality (%) at each observation point.
(§2) To determine if the mixtures provided unexpected results, the observed combined efficacy (“OCE”) was divided by the expected combined efficacy (“ECE”) to give an OCE/ECE ratio wherein the expected ECE is calculated by the Abbott method: […]
(§3) wherein ECE is the expected combined efficacy and in which A and B are the efficacy provided by the single active ingredients. If the ratio between the OCE of the mixture and the ECE of the mixture is greater than 1, then greater than expected interactions are present in the mixture. (Gisi, The American Phytopathological Society, 86:11, 1273-1279, 1996).

[2] = tested on: German cockroach (Blattella germanica); assay: direct spray bioassay against German cockroach; conditions: for % Mortality: Hour 4; for mortality at 0.05 % strength / mortality at 0.5 % strength / mortality at 5 % strength: Blattella germanica
Method: as §2, §3
(§4) A direct spray bioassay for a mixture of sabadilla and MGK264 against German cockroach (Blattella germanica) was conducted on Feb. 13-20, 2019. A water-based formulation containing Sabadilla alone, MGK264 alone, or these combinations were prepared using test products and distilled water. Ten adults (1:1 sex ratio) of the cockroach were put into 200 mL clean cup (80 mm diameter×45 mm height) laid a filter paper (82 mm diameter) at the bottom. The cup was set on the bottom of CSMA chamber (460 mm×460 mm×700 mm height), and 1.5 mL of water (control) or water-based formulation of test products was sprayed from the distance of 60 cm toward the cup at the air pressure of 0.041 MPa (0.42 kg/cm2). […] The test was repeated 4 times and calculated mortality (%) at each observation point.

[3] = tested on: house fly (Musca domestica); assay: direct spray bioassay against house fly; conditions: for % Mortality: Hour 4; for mortality at 0.025 % strength / mortality at 0.1 % strength / mortality at 0.25 % strength / mortality at 1 % strength: Musca domestica
Method: as §2, §3
as §1, with “sabadilla N-octyl” for “sabadilla”, “MGK264” for “N-octyl bycloheptene dicarboximide (MGK264)”, “house fly (Musca domestica)” for “Yellow fever mosquito (Aedes aegypti)”, “Mar. 6-13,” for “Sep. 20-27,”, “house fly” for “mosquito”

[4] = tested on: bed bug (Cimex lectularius); assay: direct spray bioassay against bed bug; conditions: for % Mortality: Hour 4; for mortality at 0.05 % strength / mortality at 0.5 % strength / mortality at 5 % strength: Cimex lectularius
Method: as §2, §3
as §4, with “bed bug (Cimex lectularius)” for “against German cockroach (Blattella germanica)”, “February 27 to Mar. 6,” for “Feb. 13-20,”, “bed bug (Cimex lectularius)” for “cockroach”, “0.5” for “1.5”

## CCCCC(CC)CN1C(=O)C2C3C=CC(C3)C2C1=O (centres unmarked) [MGK264, N-octyl bicycloheptene dicarboximide]
[1]; 0.05 % w/w
  % Mortality: 0.0%
[1]; 0.1 % w/w
  % Mortality: 0.0%
[1]; 0.5 % w/w
  % Mortality: 0.0%
[1]; 24 h, 0.05 % w/w, Day 1
  mortality at 0.05 % strength: 0%
[1]; 24 h, 0.5 % w/w, Day 1
  mortality at 0.5 % strength: 0%
[1]; 24 h, Day 1
  mortality at 1 % strength: 10%
  mortality: 0%
[1]; 48 h, 0.5 % w/w, Day 2
  mortality at 0.5 % strength: 0%
[1]; 48 h, Day 2
  mortality at 1 % strength: 12.5%
[1]; 120 h, 0.05 % w/w, Day 5
  mortality at 0.05 % strength: 0%
[1]; 120 h, 0.5 % w/w, Day 5
  mortality at 0.5 % strength: 0%
[1]; 120 h, Day 5
  mortality at 1 % strength: 12.5%
[1]; 144 h, 0.5 % w/w, Day 6
  mortality at 0.5 % strength: 0%
[1]; 144 h, Day 6
  mortality at 1 % strength: 12.5%
[1]; 168 h, 0.05 % w/w, Day 7
  mortality at 0.05 % strength: 0%
[1]; 168 h, 0.5 % w/w, Day 7
  mortality at 0.5 % strength: 0%
[1]; 168 h, Day 7
  mortality at 1 % strength: 12.5%
  mortality: 2.5%
[1]; 0.05 % w/w, Hour 1
  mortality at 0.05 % strength: 0%
[1]; 0.5 % w/w, Hour 1
  mortality at 0.5 % strength: 0%
[1]; Hour 1
  mortality at 1 % strength: 7.5%
  mortality: 0%
[2]; 0.05 % w/w
  % Mortality: 0.0%
[2]; 0.5 % w/w
  % Mortality: 0.0%
[2]; 5.0 % w/w
  % Mortality: 0.0%
[2]; 24 h, 0.05 % w/w, Day 1
  mortality at 0.05 % strength: 0%
[2]; 24 h, 0.5 % w/w, Day 1
  mortality at 0.5 % strength: 0%
[2]; 24 h, 5.0 % w/w, Day 1
  mortality at 5 % strength: 0%
[2]; 48 h, 0.05 % w/w, Day 2
  mortality at 0.05 % strength: 0%
[2]; 48 h, 0.5 % w/w, Day 2
  mortality at 0.5 % strength: 0%
[2]; 48 h, 5.0 % w/w, Day 2
  mortality at 5 % strength: 0%
[2]; 120 h, 0.05 % w/w, Day 5
  mortality at 0.05 % strength: 2.6%
[2]; 120 h, 0.5 % w/w, Day 5
  mortality at 0.5 % strength: 0%
[2]; 120 h, 5.0 % w/w, Day 5
  mortality at 5 % strength: 0%
[2]; 144 h, 0.05 % w/w, Day 6
  mortality at 0.05 % strength: 2.6%
[2]; 144 h, 0.5 % w/w, Day 6
  mortality at 0.5 % strength: 0%
[2]; 144 h, 5.0 % w/w, Day 6
  mortality at 5 % strength: 0%
[2]; 168 h, 0.05 % w/w, Day 7
  mortality at 0.05 % strength: 2.6%
[2]; 168 h, 0.5 % w/w, Day 7
  mortality at 0.5 % strength: 0%
[2]; 168 h, 5.0 % w/w, Day 7
  mortality at 5 % strength: 0%
[2]; 0.05 % w/w, Hour 1
  mortality at 0.05 % strength: 0%
[2]; 0.5 % w/w, Hour 1
  mortality at 0.5 % strength: 0%
[2]; 5.0 % w/w, Hour 1
  mortality at 5 % strength: 0%
[3]; 0.025 % w/w
  % Mortality: 0.0%
[3]; 0.1 % w/w
  % Mortality: 0.0%
[3]; 0.25 % w/w
  % Mortality: 0.0%
[3]; 1.0 % w/w
  % Mortality: 0.0%
[3]; 24 h, 0.025 % w/w, Day 1
  mortality at 0.025 % strength: 0%
[3]; 24 h, 0.1 % w/w, Day 1
  mortality at 0.1 % strength: 0%
[3]; 24 h, 0.25 % w/w, Day 1
  mortality at 0.25 % strength: 0%
[3]; 24 h, 1.0 % w/w, Day 1
  mortality at 1 % strength: 2.5%
[3]; 48 h, 0.025 % w/w, Day 2
  mortality at 0.025 % strength: 7.3%
[3]; 48 h, 0.1 % w/w, Day 2
  mortality at 0.1 % strength: 10%
[3]; 48 h, 0.25 % w/w, Day 2
  mortality at 0.25 % strength: 10%
[3]; 48 h, 1.0 % w/w, Day 2
  mortality at 1 % strength: 12.5%
[3]; 120 h, 0.025 % w/w, Day 5
  mortality at 0.025 % strength: 34.1%
[3]; 120 h, 0.1 % w/w, Day 5
  mortality at 0.1 % strength: 37.5%
[3]; 120 h, 0.25 % w/w, Day 5
  mortality at 0.25 % strength: 42.5%
[3]; 120 h, 1.0 % w/w, Day 5
  mortality at 1 % strength: 72.5%
[3]; 144 h, 0.025 % w/w, Day 6
  mortality at 0.025 % strength: 53.7%
[3]; 144 h, 0.1 % w/w, Day 6
  mortality at 0.1 % strength: 37.5%
[3]; 144 h, 0.25 % w/w, Day 6
  mortality at 0.25 % strength: 50%
[3]; 144 h, 1.0 % w/w, Day 6
  mortality at 1 % strength: 80%
[3]; 168 h, 0.025 % w/w, Day 7
  mortality at 0.025 % strength: 68.3%
[3]; 168 h, 0.1 % w/w, Day 7
  mortality at 0.1 % strength: 55%
[3]; 168 h, 0.25 % w/w, Day 7
  mortality at 0.25 % strength: 60%
[3]; 168 h, 1.0 % w/w, Day 7
  mortality at 1 % strength: 87.5%
[3]; 0.025 % w/w, Hour 1
  mortality at 0.025 % strength: 0%
[3]; 0.1 % w/w, Hour 1
  mortality at 0.1 % strength: 0%
[3]; 0.25 % w/w, Hour 1
  mortality at 0.25 % strength: 0%
[3]; 1.0 % w/w, Hour 1
  mortality at 1 % strength: 0%
[4]; 0.05 % w/w
  % Mortality: 0.0%
[4]; 0.5 % w/w
  % Mortality: 0.0%
[4]; 5.0 % w/w
  % Mortality: 0.0%
[4]; 24 h, 0.05 % w/w, Day 1
  mortality at 0.05 % strength: 0%
[4]; 24 h, 0.5 % w/w, Day 1
  mortality at 0.5 % strength: 0%
[4]; 24 h, 5.0 % w/w, Day 1
  mortality at 5 % strength: 0%
[4]; 48 h, 0.05 % w/w, Day 2
  mortality at 0.05 % strength: 0%
[4]; 48 h, 0.5 % w/w, Day 2
  mortality at 0.5 % strength: 0%
[4]; 48 h, 5.0 % w/w, Day 2
  mortality at 5 % strength: 0%
[4]; 120 h, 0.05 % w/w, Day 5
  mortality at 0.05 % strength: 0%
[4]; 120 h, 0.5 % w/w, Day 5
  mortality at 0.5 % strength: 0%
[4]; 120 h, 5.0 % w/w, Day 5
  mortality at 5 % strength: 0%
[4]; 144 h, 0.05 % w/w, Day 6
  mortality at 0.05 % strength: 0%
[4]; 144 h, 0.5 % w/w, Day 6
  mortality at 0.5 % strength: 0%
[4]; 144 h, 5.0 % w/w, Day 6
  mortality at 5 % strength: 0%
[4]; 168 h, 0.05 % w/w, Day 7
  mortality at 0.05 % strength: 0%
[4]; 168 h, 0.5 % w/w, Day 7
  mortality at 0.5 % strength: 0%
[4]; 168 h, 5.0 % w/w, Day 7
  mortality at 5 % strength: 0%
[4]; 0.05 % w/w, Hour 1
  mortality at 0.05 % strength: 0%
[4]; 0.5 % w/w, Hour 1
  mortality at 0.5 % strength: 0%
[4]; 5.0 % w/w, Hour 1
  mortality at 5 % strength: 0%
